Drawing on PubChem BioAssay (NCI), this text covers GI50 and TGI for nine compounds.

Each structure is given as a SMILES string.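 Protocol summary: plate cells (96-well), add compound at 5 concentrations, incubate 48 h, interpolate endpoints linearly. Abbreviation: GI50, concentration required for 50% inhibition of growth. TGI is the concentration that stops growth completely.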

Holding throughout (experiment): NCI tumour cell line growth inhibition, 48 h
Test [1] has as its system NCI-H23 lung.
Test [2] relates to EKVX NSCLC.
Test [3] deals with SNB-75 CNS.
The test system of test [4] is CCRF-CEM leukemia.
In test [5] the test system is UO-31 renal.
Test [6] has as its system M14 melanoma.
In test [7] the test system is NCI-H226 lung.
Test [8] concerns OVCAR-5 ovarian.
Test [9] relates to OVCAR-4 ovarian.
Test [10] deals with U251 CNS.

`O=C(OCc1ccc2c(Cl)cc(Cl)c(O)c2n1)N1CCN(C(=O)c2cc3cc(F)ccc3[nH]2)CC1`: the GI50 is 2.25 µM in test [1]; above 74.9 µM in [2]; 2.85 µM in test [3]; 0.876 µM in [4]; 2.59 µM in [5]; 0.675 µM in test [6]. The GI50 is 45.4 µM in [7], above 37.5 µM in test [8], 5.37 µM in test [9] and 2.55 µM in test [10]. The TGI in test [1], in [2], in test [3], in test [4], in test [5] and in test [6] was above 100 µM in each case. Besides, the TGI in [7], in [8], in test [9] and in test [10] was above 100 µM throughout.
Take `Cc1cc(C(C)(C)C)cc(Cc2cc(C(C)(C)C)cc(Cc3cc(C(C)(C)C)cc(C)c3O)c2O)c1O`: the TGI in test [1] came out at 21.7 µM; in [2], 22.9 µM; in test [3], 15.5 µM; in test [4] it was 9.04 µM; in test [5], 25.9 µM; in test [6] it was 20.5 µM. Besides, the TGI stood at 24.6 µM in [7], 31.3 µM in test [8], 20.2 µM in [9] and 14.9 µM in [10].
For `O=C(CSC(c1ccccc1)c1ccccc1)N/N=C/c1ccco1`, the GI50 in test [1] is 1.6 µM; in test [2] it was 2.44 µM; in test [3] it was 17.1 µM; in test [4], 2.48 µM; in test [5], 2.03 µM; in test [6] it was 1.49 µM. Besides, the GI50 is 3 µM in [7], 1.97 µM in test [8], 1.73 µM in test [9] and 1.77 µM in test [10]. Moreover, the TGI in test [1] is 4.46 µM; in test [2], above 5.19 µM; in [3], 58.1 µM; in test [4], 22 µM; in test [5], 10.3 µM; in [6], 2.69 µM. Further, the TGI in test [7] turned out to be 17.1 µM; in test [8] it was 5.24 µM; in test [9], 6.49 µM; in test [10], 3.21 µM.
Regarding `c1ccc(CSc2nc3ccccc3nc2-c2cccs2)cc1`, the TGI in test [1], in test [2], in [3], in test [4], in [5] and in [6] was above 100 µM throughout. For the same compound, the TGI in test [7], in [8], in test [9] and in test [10] was above 100 µM each time.
For the compound `O=C(NCc1ccc(S(=O)(=O)c2cc(F)cc(F)c2)cc1)c1ccc2nccn2c1`, the GI50 in test [1] is above 48.7 µM; in test [2] it was 23.3 µM; in test [3] it was 15.3 µM; in test [5] it was above 44.8 µM; in test [6], below 0.0108 µM; in test [7], above 46 µM. Besides, the GI50 in [8] was 0.331 µM; in test [9], 11.3 µM; in [10], 6.01 µM. For the same compound, the TGI in test [1] is above 100 µM; in [2] it was above 100 µM; in [3], 45.8 µM; in test [4], above 100 µM; in test [5], above 100 µM; in test [6] it was above 100 µM. The TGI in test [7] was above 73.9 µM; in [8], above 100 µM; in test [9], above 77.3 µM; in [10], above 56.7 µM.
`O=C(O)C12CC3(C(=O)O)CC(C(=O)O)(CC(C(=O)O)(C1)C3=O)C2=O`: the TGI in test [1], in [2], in test [3], in [4], in test [5] and in test [6] was above 100 µM in each case. Also, the TGI in test [7], in test [8], in test [9] and in test [10] was above 100 µM each time.
Take `S=C1SC2=Nc3ccccc3CN2C2=NCCN12`: the GI50 is above 100 µM in test [1]; above 100 µM in test [2]; 17.4 µM in test [3]; 36.7 µM in test [4]; above 100 µM in test [5]; above 100 µM in test [6]. Besides, the GI50 was above 100 µM in test [7], above 100 µM in [8], above 100 µM in [9] and 39.2 µM in test [10]. The TGI in test [1], in [2], in test [3], in test [4], in [5] and in test [6] was above 100 µM in each case. Moreover, the TGI in [7], in test [8], in [9] and in [10] was above 100 µM each time.
As to `CCN(CC)CCNC(=O)c1ccc(C)c(OCc2ccccc2)c1[N+](=O)[O-]`, the TGI in test [1] was above 100 µM; in [2] it was above 100 µM; in test [3], 67.9 µM; in test [4], 81.4 µM; in test [5] it was 50.5 µM; in test [6], 32.3 µM. Also, the TGI in test [7] was 90.3 µM; in test [8], 81.3 µM; in test [9] it was above 100 µM; in test [10], above 84.1 µM.
As for `COc1ccc2c(Oc3ccc(NC(=O)c4c(C)n(CC(C)(C)O)n(-c5ccccc5)c4=O)nc3)ccnc2c1`, the GI50 in [1] was 18.4 µM; in test [2], 23.3 µM; in [3], 5.53 µM; in test [4], 18.2 µM; in test [5], 4.41 µM; in test [6], 6.29 µM. Also, the GI50 was 16.2 µM in test [7], 37.8 µM in test [8], 10.7 µM in test [9] and 13.1 µM in test [10]. Besides, the TGI in test [1] is above 100 µM; in test [2] it was above 80.3 µM; in test [3], 71.1 µM; in test [4] it was above 100 µM; in [5], above 100 µM; in [6] it was above 100 µM. Moreover, the TGI in test [7] was above 78 µM; in [8] it was above 89.6 µM; in test [9], above 90 µM; in test [10] it was above 100 µM.
